{"source": "patent US10131652B2", "about": "“Pyrimidinyloxy benzene derivatives as herbicides” (E. I. DU PONT DE NEMOURS AND COMPANY, priority 2014, dated 2018)", "type_in_all_cases": "in vivo", "key": {"[1]": {"test_system": "Italian ryegrass (Lolium multiflorum)", "assay": "Test B pre-/postemergence plant response", "method_in_brief": "(§1)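 Visual injury scores on a 0–100 scale (100 = complete control) relative to untreated plants, taken about 10 days post-treatment in greenhouse. Treatments were a directed preemergence soil spray and a postemergence spray at one- to two-leaf stage, using surfactant-containing solvent formulation.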"}, "kochia (Kochia scoparia)": {"test_system": "kochia (Kochia scoparia)", "assay": "Test B pre-/postemergence plant response", "method_in_brief": "as §1"}, "[2]": {"test_system": "ragweed (common ragweed, Ambrosia elatior)", "assay": "Test B pre-/postemergence plant response", "method_in_brief": "as §1"}, "[3]": {"test_system": "Italian ryegrass (Lolium multiflorum)", "assay": "Test D pre-/postemergence plant response", "conditions": "Postemergence; for Plant response rating, Ryegrass, Italian: scale 0 to 100, 0 no effect, 100 complete control", "method_in_brief": "(§2)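 Visual rating, 0–100 scale (0 = no effect, 100 = complete control), versus untreated controls 13 to 15 days after treatment in greenhouse. Preemergence: seeds in loam/sand soil. Postemergence: 2 to 18 cm plants, 1- to 4-leaf stage, peat-based medium. Compounds formulated in non-phytotoxic solvent plus surfactant.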"}, "[4]": {"test_system": "barnyardgrass (Echinochloa crus-galli)", "assay": "Test D pre-/postemergence plant response", "conditions": "Postemergence; for Barnyardgrass plant response rating: scale 0 to 100 (0 no effect, 100 complete control); for Plant response rating, Barnyardgrass: scale 0 to 100, 0 no effect, 100 complete control", "method_in_brief": "as §2"}, "[5]": {"test_system": "blackgrass (Alopecurus myosuroides)", "assay": "Test D pre-/postemergence plant response", "conditions": "Postemergence; for Blackgrass plant response rating: scale 0 to 100 (0 no effect, 100 complete control); for Plant response rating, Blackgrass: scale 0 to 100, 0 no effect, 100 complete control", "method_in_brief": "as §2"}, "corn (Zea mays)": {"test_system": "corn (Zea mays)", "assay": "Test D pre-/postemergence plant response", "conditions": "Postemergence; for Corn plant response rating: scale 0 to 100 (0 no effect, 100 complete control); for Plant response rating, Corn: scale 0 to 100, 0 no effect, 100 complete control", "method_in_brief": "as §2"}, "[6]": {"test_system": "giant foxtail (Setaria faberii)", "assay": "Test D pre-/postemergence plant response", "conditions": "Postemergence; for Foxtail, Giant plant response rating: scale 0 to 100 (0 no effect, 100 complete control); for Plant response rating, Foxtail, Giant: scale 0 to 100, 0 no effect, 100 complete control", "method_in_brief": "as §2"}, "[7]": {"test_system": "lambsquarters (Chenopodium album)", "assay": "Test D pre-/postemergence plant response", "conditions": "Postemergence; for Plant response rating, Lambsquarters: scale 0 to 100, 0 no effect, 100 complete control", "method_in_brief": "as §2"}, "[8]": {"test_system": "large (Lg) crabgrass (Digitaria sanguinalis)", "assay": "Test D pre-/postemergence plant response", "conditions": "Postemergence; for Crabgrass, Large plant response rating: scale 0 to 100 (0 no effect, 100 complete control); for Plant response rating, Crabgrass, Large: scale 0 to 100, 0 no effect, 100 complete control", "method_in_brief": "as §2"}, "[9]": {"test_system": "morningglory (Ipomoea coccinea)", "assay": "Test D pre-/postemergence plant response", "conditions": "Postemergence; for Plant response rating, Morningglory: scale 0 to 100, 0 no effect, 100 complete control", "method_in_brief": "as §2"}, "[10]": {"test_system": "pigweed (Amaranthus retroflexus)", "assay": "Test D pre-/postemergence plant response", "conditions": "Postemergence; for Plant response rating, Pigweed: scale 0 to 100, 0 no effect, 100 complete control", "method_in_brief": "as §2"}, "soybean (Glycine max)": {"test_system": "soybean (Glycine max)", "assay": "Test D pre-/postemergence plant response", "conditions": "Postemergence; for Plant response rating, Soybean: scale 0 to 100, 0 no effect, 100 complete control", "method_in_brief": "as §2"}, "[11]": {"test_system": "velvetleaf (Abutilon theophrasti)", "assay": "Test D pre-/postemergence plant response", "conditions": "Postemergence; for Plant response rating, Velvetleaf: scale 0 to 100, 0 no effect, 100 complete control", "method_in_brief": "as §2"}, "[12]": {"test_system": "waterhemp (common waterhemp, Amaranthus rudis)", "assay": "Test D pre-/postemergence plant response", "conditions": "Postemergence; for Plant response rating, Waterhemp: scale 0 to 100, 0 no effect, 100 complete control", "method_in_brief": "as §2"}, "[13]": {"conditions": "125 g ai/ha, postemergence, 0 to 100 scale, 0 no effect, 100 complete control"}, "[14]": {"conditions": "Postemergence, 500 g ai/ha, 0 to 100 scale (0 no effect, 100 complete control)"}, "[15]": {"conditions": "Preemergence, 125 g ai/ha, 0 to 100 scale (0 no effect, 100 complete control)"}, "[16]": {"conditions": "Preemergence, 500 g ai/ha, 0 to 100 scale where 0 is no effect and 100 is complete control"}, "[17]": {"conditions": "31 g ai/ha, scale 0 to 100 (0 no effect, 100 complete control)"}}, "data": [{"smiles": "FC(F)(F)c1cc(-c2c(Br)cccc2Oc2ncc(Cl)cn2)no1", "note": "[Compound 170]", "values": [{"measurement": "Plant response rating, Ryegrass, Italian", "setting": "[1]; [13]", "value": 0}, {"measurement": "Plant response rating, Ryegrass, Italian", "setting": "[1]; [14]", "value": 20}, {"measurement": "Ryegrass, Italian plant response rating", "setting": "[1]; [15]", "value": 0}, {"measurement": "Plant response rating, Ryegrass, Italian", "setting": "[1]; [16]", "value": 20}, {"measurement": "Plant response rating, Kochia", "setting": "kochia (Kochia scoparia); [13]", "value": 70}, {"measurement": "Plant response rating, Kochia", "setting": "kochia (Kochia scoparia); [14]", "value": 100}, {"measurement": "Kochia plant response rating", "setting": "kochia (Kochia scoparia); [15]", "value": 30}, {"measurement": "Plant response rating, Kochia", "setting": "kochia (Kochia scoparia); [16]", "value": 80}, {"measurement": "Plant response rating, Ragweed", "setting": "[2]; [13]", "value": 10}, {"measurement": "Plant response rating, Ragweed", "setting": "[2]; [14]", "value": 50}, {"measurement": "Ragweed plant response rating", "setting": "[2]; [15]", "value": 20}, {"measurement": "Plant response rating, Ragweed", "setting": "[2]; [16]", "value": 60}, {"measurement": "Ryegrass, Italian plant response rating", "setting": "[3]; [17]", "value": 0}, {"measurement": "Plant response rating, Ryegrass, Italian", "setting": "[3]; 62 g ai/ha", "value": 5}, {"measurement": "Plant response rating, Ryegrass, Italian", "setting": "[3]; 125 g ai/ha", "value": 5}, {"measurement": "Barnyardgrass plant response rating", "setting": "[4]; 16 g ai/ha", "value": 0}, {"measurement": "Barnyardgrass plant response rating", "setting": "[4]; 31 g ai/ha", "value": 0}, {"measurement": "Plant response rating, Barnyardgrass", "setting": "[4]; 62 g ai/ha", "value": 5}, {"measurement": "Plant response rating, Barnyardgrass", "setting": "[4]; 125 g ai/ha", "value": 5}, {"measurement": "Blackgrass plant response rating", "setting": "[5]; 16 g ai/ha", "value": 0}, {"measurement": "Blackgrass plant response rating", "setting": "[5]; 31 g ai/ha", "value": 0}, {"measurement": "Plant response rating, Blackgrass", "setting": "[5]; 62 g ai/ha", "value": 5}, {"measurement": "Plant response rating, Blackgrass", "setting": "[5]; 125 g ai/ha", "value": 5}, {"measurement": "Corn plant response rating", "setting": "corn (Zea mays); 16 g ai/ha", "value": 5}, {"measurement": "Corn plant response rating", "setting": "corn (Zea mays); 31 g ai/ha", "value": 5}, {"measurement": "Plant response rating, Corn", "setting": "corn (Zea mays); 62 g ai/ha", "value": 5}, {"measurement": "Plant response rating, Corn", "setting": "corn (Zea mays); 125 g ai/ha", "value": 5}, {"measurement": "Foxtail, Giant plant response rating", "setting": "[6]; 16 g ai/ha", "value": 5}, {"measurement": "Foxtail, Giant plant response rating", "setting": "[6]; 31 g ai/ha", "value": 30}, {"measurement": "Plant response rating, Foxtail, Giant", "setting": "[6]; 62 g ai/ha", "value": 40}, {"measurement": "Plant response rating, Foxtail, Giant", "setting": "[6]; 125 g ai/ha", "value": 40}, {"measurement": "Lambsquarters plant response rating", "setting": "[7]; [17]", "value": 40}, {"measurement": "Plant response rating, Lambsquarters", "setting": "[7]; 62 g ai/ha", "value": 40}, {"measurement": "Plant response rating, Lambsquarters", "setting": "[7]; 125 g ai/ha", "value": 80}, {"measurement": "Crabgrass, Large plant response rating", "setting": "[8]; 16 g ai/ha", "value": 5}, {"measurement": "Crabgrass, Large plant response rating", "setting": "[8]; 31 g ai/ha", "value": 5}, {"measurement": "Plant response rating, Crabgrass, Large", "setting": "[8]; 62 g ai/ha", "value": 5}, {"measurement": "Plant response rating, Crabgrass, Large", "setting": "[8]; 125 g ai/ha", "value": 10}, {"measurement": "Morningglory plant response rating", "setting": "[9]; [17]", "value": 30}, {"measurement": "Plant response rating, Morningglory", "setting": "[9]; 62 g ai/ha", "value": 70}, {"measurement": "Plant response rating, Morningglory", "setting": "[9]; 125 g ai/ha", "value": 98}, {"measurement": "Pigweed plant response rating", "setting": "[10]; [17]", "value": 90}, {"measurement": "Plant response rating, Pigweed", "setting": "[10]; 62 g ai/ha", "value": 98}, {"measurement": "Plant response rating, Pigweed", "setting": "[10]; 125 g ai/ha", "value": 98}, {"measurement": "Soybean plant response rating", "setting": "soybean (Glycine max); [17]", "value": 10}, {"measurement": "Plant response rating, Soybean", "setting": "soybean (Glycine max); 62 g ai/ha", "value": 10}, {"measurement": "Plant response rating, Soybean", "setting": "soybean (Glycine max); 125 g ai/ha", "value": 35}, {"measurement": "Velvetleaf plant response rating", "setting": "[11]; [17]", "value": 5}, {"measurement": "Plant response rating, Velvetleaf", "setting": "[11]; 62 g ai/ha", "value": 25}, {"measurement": "Plant response rating, Velvetleaf", "setting": "[11]; 125 g ai/ha", "value": 25}, {"measurement": "Waterhemp plant response rating", "setting": "[12]; [17]", "value": 80}, {"measurement": "Plant response rating, Waterhemp", "setting": "[12]; 62 g ai/ha", "value": 100}, {"measurement": "Plant response rating, Waterhemp", "setting": "[12]; 125 g ai/ha", "value": 85}]}]}
